Data from patent US20170342025A1, “ANTIMICROBIAL COMPOUNDS, COMPOSITIONS AND METHODS” (Swansea University, priority 2014, published 2017).
Read-outs that look alike come from different tables or passages of the source.

What was measured:
[1] = tested on: Staphylococcus aureus (strain 9518); assay: MIC determination against Staphylococcus aureus (Andrews protocol); type: cell-based; details: Staphylococcus aureus, read-out: MIC S. aureus
Description: (§1) Minimum Inhibitory Concentrations (MICs) for the compounds prepared were determined against Escherichia coli (strain JM109) and Staphylococcus aureus (strain 9518) using the protocols described by Andrews (J. Antimicrob. Chemother., 2001, 48, Suppl. S1, 5-16).

[2] = tested on: Escherichia coli (strain JM109); assay: MIC determination against Escherichia coli (Andrews protocol); type: cell-based; details: Escherichia coli, read-out: MIC E. coli
Description: as §1

[3] = tested on: methicillin-resistant staphylococcus aureus (MRSA) strain MRSA-III (ST239); assay: MIC against MRSA strain MRSA-III (ST239); type: cell-based; details: read-out: MIC against MRSA-III
Description: as §1
(§2) In addition, three compounds were tested against methicillin-resistant staphylococcus aureus (MRSA) strains MRSA-III (ST239) and EMRSA-15.

[4] = tested on: methicillin-resistant staphylococcus aureus (MRSA) strain EMRSA-15; assay: MIC against MRSA strain EMRSA-15; type: cell-based
Description: as §1, §2

[5] = Staphylococcus aureus strain 9518
[6] = second MRSA strain, text names EMRSA-15, read-out: MIC against MRSA-1

| Structure (SMILES) | MIC [1] [µg/mL] | MIC [2] [µg/mL] | MIC ([3]; MRSA) [µg/mL] | MIC ([4]; MRSA, read-out: MIC against MRSA-1) [µg/mL] | MIC [1, 5] [µg/mL] | MIC ([2]; Escherichia coli strain JM109) [µg/mL] | melting point [°C] | MIC ([3]; MRSA-III (ST239)) [µg/mL] | MIC [4, 6] [µg/mL] |
| --- | --- | --- | --- | --- | --- | --- | --- | --- | --- |
| N=C(N)NCc1cccc(OCc2cccc(C(F)(F)F)c2Cl)c1.O=C(O)C(F)(F)F [Compound 4L, 1-[(3-{[2-chloro-3-(trifluoromethyl)phenyl]methoxy}phenyl)methyl]guanidine 2,2,2-trifluoroacetate] | 10 to 32 | 1 to 10 | 1 to 10 | 1 to 10 | – | – | – | – | – |
| Cl.N=C(N)N/N=C/c1cccc(OCc2ccc(C(F)(F)F)cc2)c1Cl [Compound 51k, (E)-Amino(2-(2-chloro-3-((4-(trifluoromethyl)benzyl)oxy)benzylidene)hydrazinyl) methaniminium chloride] | – | – | – | – | 10 to 32 | 10 to 32 | 245 to 247 | – | – |
| N=C(N)NCc1ccc(OCc2cccc(Cl)c2Cl)cc1.O=C(O)C(F)(F)F [Compound 19e, 1-(4-((2,3-dichlorobenzyl)oxy)benzyl)guanidine 2,2,2-trifluoroacetate] | – | – | – | – | 10 to 32 | 1 to 10 | – | 1 to 10 | 1 to 10 |
| Cl.N=C(N)N/N=C/c1cccc(OCc2ccc(Cl)cc2)c1Cl [Compound 51c, (E)-Amino(2-(2-chloro-3-((4-chlorobenzyl)oxy)benzylidene)hydrazinyl) methaniminium chloride] | – | – | – | – | 1 to 10 | 1 to 10 | 237 to 239 | – | – |
| Cl.N=C(N)N/N=C/c1cccc(OCc2cc(Cl)ccc2Cl)c1Cl [Compound 51g, (E)-Amino(2-(2-chloro-3-((2,5-dichlorobenzyl)oxy)benzylidene)hydrazinyl) methaniminium chloride] | – | – | – | – | 32 to 100 | 10 to 32 | 242 to 244 | – | – |
| CC(=O)O.N=C(N)NN=Cc1cccc(OCc2cccc(Cl)c2Cl)c1 [Compound 49a, 1-[({3-[(2,3-dichlorophenyl)methoxy]phenyl}methylidene)amino]guanidine acetate] | – | – | – | – | 1 to 10 | 1 to 10 | 159 to 160 | 1 to 10 | 1 to 10 |
| N=C(N)Nc1cccc2c1CCCC2.O=C(O)C(F)(F)F [Compound 23d, 1-(5,6,7,8-tetrahydronaphthalen-1-yl)guanidine 2,2,2-trifluoroacetate] | – | – | – | – | > 100 | > 100 | 153 to 155 | – | – |
| COc1cccc(COc2cccc(/C=N/NC(=N)N)c2Cl)c1Cl.Cl [Compound 51a, (E)-Amino(2-(2-chloro-3-((2-chloro-3-methoxybenzyl)oxy)benzylidene) hydrazinyl)methaniminium chloride] | – | – | – | – | 32 to 100 | 32 to 100 | 258 to 260 | – | – |
